In US8278345B2, “Inhibitors of glutaminyl cyclase” (Probiodrug AG, priority 2006, dated 2012) one finds IC50, melting point and Ki data, which are given here for 23 molecules.

The target of one data set is hQC (Homo sapiens, UniProt Q16769). Nature of the data set: Inhibitor assay for glutaminyl cyclase activity (fluorometric, H-Gln-βNA / H-Gln-AMC). It counts as biochemical. The procedure, abridged:
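Coupled fluorometric assay at 30 °C with pyroglutamyl aminopeptidase, in Tris/HCl pH 8.0 with EDTA, substrate H-Gln-βNA (0.2 mM; ex/em 320/410 nm) or H-Gln-AMC (ex/em 380/460 nm), initiated by QC. Screening: 4 mM inhibitor, substrate at 1 KM; Ki from progress curves fitted to competitive inhibition.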

Where [1] appears, read: compound from preparative synthesis, purified, read-out: IC50 hQC.
Where [2] appears, read: compound from preparative synthesis, purified.

Like-named read-outs stand apart in the source and are kept apart here.

Sequence of hQC (Q16769 29-361): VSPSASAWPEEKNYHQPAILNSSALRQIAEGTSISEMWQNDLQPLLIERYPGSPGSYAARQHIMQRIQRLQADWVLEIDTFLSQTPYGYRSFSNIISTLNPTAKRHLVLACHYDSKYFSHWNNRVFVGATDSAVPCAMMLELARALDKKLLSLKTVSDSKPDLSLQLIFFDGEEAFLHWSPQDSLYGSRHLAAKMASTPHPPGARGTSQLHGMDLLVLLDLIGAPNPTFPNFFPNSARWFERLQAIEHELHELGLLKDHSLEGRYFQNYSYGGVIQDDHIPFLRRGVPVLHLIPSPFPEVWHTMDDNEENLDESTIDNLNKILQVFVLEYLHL

For the molecule `CC(=O)C1=C(O)C(=O)N(c2ccc3[nH]cnc3c2)C1c1cccc(F)c1F` (stereo not drawn) [Compound 350, 4-Acetyl-1-(1H-benzoimidazol-5-yl)-5-(2,3-difluoro-phenyl)-3-hydroxy-1,5-dihydro-pyrrol-2-one], the melting point amounted to 135 °C. Also, the IC50 on hQC (setting [1]) turned out to be 30.3 nM. The half-inhibitory concentration (IC50) at hQC (read-out: IC50) was 4 nM.

The molecule `O=C(C1=C(O)C(=O)N(c2ccc3[nH]cnc3c2)C1c1ccc2cccc(O)c2n1)C1CC1` (stereo not drawn) [Compound 446, 1-(1H-Benzoimidazol-5-yl)-4-cyclopropanecarbonyl-3-hydroxy-5-(8-hydroxy-quinolin-2-yl)-1,5-dihydro-pyrrol-2-one] showed a melting point of 155 °C. Also, on hQC (setting [1]), the IC50 was determined as 1.35 nM. Moreover, the IC50 on hQC (read-out: IC50) is 4 nM.

Consider `CC1=C(O)C(=O)N(c2ccc3[nH]cnc3c2)C1c1cccc(Cl)c1Cl` (stereo not drawn) [Compound 468, 1-(1H-benzo[d]imidazol-5-yl)-5-(2,3-dichlorophenyl)-3-hydroxy-4-methyl-1H-pyrrol-2(5H)-one], for which the melting point lay in the range of 162 to 174 °C. In addition, at hQC (setting [2]), the affinity corresponds to a Ki of 14.6 nM. The IC50 at hQC (read-out: IC50) amounted to 75 nM.

`CC(=O)C1=C(O)C(=O)N(c2ccc3[nH]cnc3c2)C1c1ccc2nonc2c1` (stereo not drawn) [Compound 403, 4-Acetyl-1-(1H-benzoimidazol-5-yl)-5-benzo[c][1,2,5]oxadiazol-5-yl-3-hydroxy-1,5-dihydro-pyrrol-2-one] displayed a melting point of 175 °C. The IC50 at hQC (setting [1]) is 28.3 nM. At hQC (read-out: IC50), the IC50 was found to be 4 nM.

`CC(=O)C1=C(O)C(=O)N(c2ccc3[nH]cnc3c2)C1c1cc(Br)ccc1F` (stereo not drawn) [Compound 437, 4-Acetyl-1-(1H-benzoimidazol-5-yl)-5-(5-bromo-2-fluoro-phenyl)-3-hydroxy-1,5-dihydro-pyrrol-2-one] had a melting point of 195 °C. Moreover, the IC50 at hQC (setting [1]) turned out to be 118 nM. Further, the IC50 on hQC (read-out: IC50) was 4 nM.

`CC1=C(O)C(=O)N(c2ccc3[nH]cnc3c2)C1c1cc(F)c(F)cc1F` (stereo not drawn) [Compound 469, 1-(1H-benzo[d]imidazol-5-yl)-5-(2,4,5-trifluorophenyl)-3-hydroxy-4-methyl-1H-pyrrol-2(5H)-one] had a melting point of 184 °C. Besides, the Ki on hQC (setting [2]) was 53.6 nM. The IC50 on hQC (read-out: IC50) amounted to 233 nM.

In turn, `O=C1C(O)=C(c2ccccc2)C(c2cc(F)cc(F)c2F)N1c1ccc2[nH]cnc2c1` (stereo not drawn) [Compound 445, 1-(1H-Benzoimidazol-5-yl)-3-hydroxy-4-phenyl-5-(2,3,5-trifluoro-phenyl)-1,5-dihydro-pyrrol-2-one] gave a melting point of 150 °C. Further, the IC50 at hQC (setting [1]) is 2.6 nM. Also, the IC50 at hQC (read-out: IC50) is 4 nM.

`O=C(C1=C(O)C(=O)N(c2ccc3[nH]cnc3c2)C1c1ccc2nonc2c1)C1CC1` (stereo not drawn) [Compound 440, 1-(1H-Benzoimidazol-5-yl)-5-benzo[c][1,2,5]oxadiazol-5-yl-4-cyclopropanecarbonyl-3-hydroxy-1,5-dihydro-pyrrol-2-one]: the melting point amounted to 170 °C. In addition, on hQC (setting [1]), the half-maximal inhibitory concentration (IC50) came to 11.4 nM. Besides, the IC50 at hQC (read-out: IC50) turned out to be 4 nM.

Turning to `CCCC(=O)C1=C(O)C(=O)N(c2ccc3[nH]cnc3c2)C1c1ccc(-c2ccccn2)cc1` (stereo not drawn) [Compound 387, 1-(1H-Benzoimidazol-5-yl)-4-butyryl-3-hydroxy-5-(4-pyridin-2-yl-phenyl)-1,5-dihydro-pyrrol-2-one], the melting point came to 294 °C. Moreover, the IC50 at hQC (setting [1]) amounted to 1.2 nM. Besides, the IC50 on hQC (read-out: IC50) was found to be 4 nM.

Regarding `O=C1C(O)=C(c2ccccc2)C(c2cnc3ccccc3c2)N1c1ccc2[nH]cnc2c1` (stereo not drawn) [Compound 420, 1-(1H-Benzoimidazol-5-yl)-3-hydroxy-4-phenyl-5-quinolin-3-yl-1,5-dihydro-pyrrol-2-one], the melting point was 108 °C. Moreover, the IC50 at hQC (setting [1]) is 32 nM. Besides, the IC50 at hQC (read-out: IC50) turned out to be 4 nM.

`CC(=O)C1=C(O)C(=O)N(c2ccc3[nH]cnc3c2)C1c1ccc2cccc(O)c2n1` (stereo not drawn) [Compound 277, 4-Acetyl-1-(1H-benzoimidazol-5-yl)-3-hydroxy-5-(8-hydroxy-quinolin-2-yl)-1,5-dihydro-pyrrol-2-one]: the melting point worked out at 174 °C. Also, at hQC (setting [1]), the IC50 came to 5.8 nM. For the same molecule, the IC50 at hQC (read-out: IC50) is 4 nM.

As for `CCCC(=O)C1=C(O)C(=O)N(c2ccc3[nH]cnc3c2)C1c1ccc2nonc2c1` (stereo not drawn) [Compound 421, 1-(1H-Benzoimidazol-5-yl)-5-benzo[c][1,2,5]oxadiazol-5-yl-4-butyryl-3-hydroxy-1,5-dihydro-pyrrol-2-one], the melting point is 266 °C. The IC50 at hQC (setting [1]) came out at 246 nM. For the same molecule, the IC50 at hQC (read-out: IC50) stood at 40 nM.

As for `O=C(C1=C(O)C(=O)N(c2ccc3[nH]cnc3c2)C1c1ccc2nsnc2c1)C1CC1` (stereo not drawn) [Compound 287, 1-(1H-Benzoimidazol-5-yl)-5-benzo[c][1,2,5]thiadiazol-5-yl-4-cyclopropanecarbonyl-3-hydroxy-1,5-dihydro-pyrrol-2-one], the melting point is 270 °C (dec.). Further, on hQC (setting [1]), the 50% inhibitory concentration (IC50) is 0.7 nM. In addition, at hQC (read-out: IC50), the IC50 was determined as 4 nM.

`CCCC(=O)C1=C(O)C(=O)N(c2ccc3[nH]cnc3c2)C1c1cc(C(F)(F)F)cc(C(F)(F)F)c1` (stereo not drawn) [Compound 335, 1-(1H-Benzoimidazol-5-yl)-5-(3,5-bis-trifluoromethyl-phenyl)-4-butyryl-3-hydroxy-1,5-dihydro-pyrrol-2-one]: the IC50 at hQC (read-out: IC50) was determined as 6790 nM.

With `CCCCCC1=C(O)C(=O)N(CCCn2ccnc2)C1c1ncc[nH]1` (stereo not drawn) [Compound 205, 3-Hydroxy-5-(1H-imidazol-2-yl)-1-(3-imidazol-1-yl-propyl)-4-pentyl-1,5-dihydro-pyrrol-2-one], the IC50 on hQC (read-out: IC50) was determined as 2200 nM.

For the molecule `CCCCCC1C(c2ccc(O)cc2)=C(O)C(=O)N1CCCn1ccnc1` (stereo not drawn) [Compound 159, 3-Hydroxy-4-(4-hydroxy-phenyl)-1-(3-imidazol-1-yl-propyl)-5-pentyl-1,5-dihydro-pyrrol-2-one], the IC50 at hQC (read-out: IC50) amounted to 40 nM.

In the case of `O=C1C(O)=C(c2c[nH]c3ccccc23)C(C2CC2)N1CCCn1ccnc1` (stereo not drawn) [Compound 139, 5-Cyclopropyl-3-hydroxy-1-(3-imidazol-1-yl-propyl)-4-(1H-indol-3-yl)-1,5-dihydro-pyrrol-2-one], at hQC (read-out: IC50), the IC50 is 400 nM.

As to `O=C1C(O)=C(c2c[nH]c3ccccc23)C(c2ccccc2)N1CCCn1ccnc1` (stereo not drawn) [Compound 127, 3-Hydroxy-1-(3-imidazol-1-yl-propyl)-4-(1H-indol-3-yl)-5-phenyl-1,5-dihydro-pyrrol-2-one], the IC50 on hQC (setting [1]) came out at 434 nM; at hQC (read-out: IC50), 40 nM.

In the case of `CCCC(=O)C1=C(O)C(=O)N(c2ccc3[nH]cnc3c2)C1c1cc[nH]n1` (stereo not drawn) [Compound 378, 1-(1H-Benzoimidazol-5-yl)-4-butyryl-3-hydroxy-5-(1H-pyrazol-3-yl)-1,5-dihydro-pyrrol-2-one], the IC50 at hQC (read-out: IC50) turned out to be 4000 nM.

With `CCC1C(c2ccc(O)cc2)=C(O)C(=O)N1CCCn1ccnc1` (stereo not drawn) [Compound 178, 5-Ethyl-3-hydroxy-4-(4-hydroxy-phenyl)-1-(3-imidazol-1-yl-propyl)-1,5-dihydro-pyrrol-2-one], at hQC (read-out: IC50), the IC50 was determined as 400 nM.

`Cc1ccc(C2C(c3cccc(O)c3)=C(O)C(=O)N2CCCn2ccnc2)cc1C` (stereo not drawn) [Compound 15, 5-(3,4-Dimethyl-phenyl)-3-hydroxy-4-(3-hydroxy-phenyl)-1-(3-imidazol-1-yl-propyl)-1,5-dihydro-pyrrol-2-one]: the 50% inhibitory concentration (IC50) on hQC (read-out: IC50) was found to be 1300 nM.

For `O=C1C(O)=C(c2ccccc2)C(c2cccc3cccnc23)N1c1ccc2[nH]cnc2c1` (stereo not drawn) [Compound 267, 1-(1H-Benzoimidazol-5-yl)-3-hydroxy-4-phenyl-5-quinolin-8-yl-1,5-dihydro-pyrrol-2-one], the IC50 on hQC (read-out: IC50) amounted to 7510 nM.

On to `O=C1C(O)=C(c2ccccc2)C(c2ccccc2F)N1CCCn1ccnc1` (stereo not drawn) [Compound 110, 5-(2-Fluoro-phenyl)-3-hydroxy-1-(3-imidazol-1-yl-propyl)-4-phenyl-1,5-dihydro-pyrrol-2-one], for which the values for the IC50 on hQC (setting [1]) and on hQC (read-out: IC50) were 740 nM and 40 nM, respectively.
